Assay: excess molar enthalpy (molar enthalpy of mixing); xn = mol fraction of the nth substance listed
Settings: 298.15 K, 101 kPa, Liquid, Calvet calorimetry

COP(=O)(OC)OC [trimethyl orthophosphate] + CCCCO
Settings	excess molar enthalpy [kcal/mol]
x1 = 0.0497	0.0957
x1 = 0.1005	0.176
x1 = 0.1531	0.24
x1 = 0.2071	0.292
x1 = 0.2625	0.322
x1 = 0.3199	0.344
x1 = 0.3794	0.353
x1 = 0.439	0.351
x1 = 0.5024	0.345
x1 = 0.5663	0.329
x1 = 0.6329	0.311
x1 = 0.7016	0.271
x1 = 0.7727	0.222
x1 = 0.8458	0.162
x1 = 0.9216	0.088

COP(=O)(OC)OC [trimethyl orthophosphate] + CCCO
Settings	excess molar enthalpy [kcal/mol]
x1 = 0.0408	0.0654
x1 = 0.0836	0.126
x1 = 0.1284	0.173
x1 = 0.1753	0.212
x1 = 0.225	0.235
x1 = 0.2769	0.256
x1 = 0.3319	0.279
x1 = 0.39	0.293
x1 = 0.4508	0.296
x1 = 0.5139	0.282
x1 = 0.5701	0.27
x1 = 0.6274	0.246
x1 = 0.6875	0.219
x1 = 0.7351	0.197
x1 = 0.7834	0.167
x1 = 0.8518	0.117
x1 = 0.9054	0.0789
x1 = 0.9614	0.0416

COP(=O)(OC)OC [trimethyl orthophosphate] + CCO
Settings	excess molar enthalpy [kcal/mol]
x1 = 0.0322	0.0369
x1 = 0.0665	0.0735
x1 = 0.1032	0.109
x1 = 0.1426	0.132
x1 = 0.185	0.151
x1 = 0.2305	0.168
x1 = 0.2796	0.179
x1 = 0.3327	0.197
x1 = 0.3671	0.208
x1 = 0.4156	0.209
x1 = 0.454	0.205
x1 = 0.5232	0.192
x1 = 0.6	0.171
x1 = 0.6836	0.144
x1 = 0.7775	0.111
x1 = 0.8821	0.0625
x1 = 0.928	0.0422
x1 = 0.9752	0.021

COP(=O)(OC)OC [trimethyl orthophosphate] + CO
Settings	excess molar enthalpy [kcal/mol]
x1 = 0.037	0.0118
x1 = 0.0739	0.0211
x1 = 0.1033	0.0268
x1 = 0.1428	0.0329
x1 = 0.1876	0.0357
x1 = 0.2569	0.054
x1 = 0.3086	0.0508
x1 = 0.3658	0.048
x1 = 0.4047	0.0444
x1 = 0.4619	0.0414
x1 = 0.51	0.0352
x1 = 0.562	0.0302
x1 = 0.6405	0.0236
x1 = 0.7079	0.0156
x1 = 0.783	0.0102
x1 = 0.8383	0.00676
x1 = 0.9	0.00333
x1 = 0.9647	0.000473

Source: the NIST ThermoML archive (doi:10.1016/j.tca.2008.02.015)
